Laboratory results taken from PMC12070314, “Efficient Small-Molecule Reversal Agents for Anticoagulant Fondaparinux” (ACS Pharmacology & Translational Science, 2025).

Columns and labels:
[1] = Fluorescence titration with fondaparinux; format: binding; details: for Kd: read-out: Apparent overall affinity for fond, K D^app ≈ BC50°
Description: The fluorescence emission spectrum of 3AC upon excitation at 280 nm is a suitable indicator of the interaction with heparin-like GAGs. Thus, the titration of 3AC with fond in Bis-Tris buffer at pH 7.5 produced a perturbation of the corresponding intensity of the fluorene emission band (Figure A), presenting two clearly differentiated phases. At a low fond/3AC ratio, the fluorescence emission intensity decreases most likely due to the proximity of chromophores when several molecules of 3AC are closely bound to one molecule of fond. After reaching a fond/3AC molar ratio of ∼0.6, the emission band starts to recover as 3AC molecules are redistributed to equimolecular complexes with fond. Considering the disaccharide repeating unit of heparin as the main binding epitope of our ligands and the electrostatic charge complementarity, we can hypothesize the formation of fond/3AC supramolecular complexes with both 1:1 and 1:2 stoichiometries as the simplest binding model satisfying the two-phase behavior (Figure B). The emission band variation was successfully fitted to the 1:2 fond/3AC equilibria, rendering the formation constants (log β values) for the corresponding complexes (inset in Figure A).
Fluorescence emission and excitation spectra were collected on a Photon Technology International Instrument, Fluorescence Master Systems, using Felix32 software and cuvettes with 10 mm path length. Stock solutions of 3AC (10 μM) and fondaparinux (0.23 mM, also containing 10 μM 3AC) were prepared in 1 mM Bis-Tris buffer at pH 7.5. Then, 2 mL of binder solution was placed on a quartz cell, and the emission fluorescence spectrum was measured upon excitation at 280 nm. Then, small volumes of fond stock solution were added to the cell, and the fluorescence spectra were acquired after each addition. The titration experiments were fitted using HyperSpec 2008 software, , which allows a nonlinear global fitting of the full emission spectra to a binding mode as defined by the user.

[2] = system: fibroblasts; assay: Resazurin cell viability assay; format: cell-based; details: for Cell viability (toxicity): concentrations <100 μM, resazurin
Description: (§1) A549 and HeLa cells were maintained in DMEM ([…] glucose, Sigma) containing 10% fetal calf serum (FCS), 2 mM glutamine, 50 U/mL penicillin, and […] streptomycin at 37 °C under a 5% CO2 atmosphere. HMEC-1 and fibroblast cells were maintained in MCDB 131 medium (GIBCO) containing 10% fetal calf serum (FCS), 2 mM glutamine, 50 U/mL penicillin, and […] streptomycin at 37 °C under a 5% CO2 atmosphere.
(§2) The viability of HMEC-1 and fibroblast cells was tested using the resazurin assay. In it, exponentially growing cells were detached from the culture flasks using a trypsin–0.25% EDTA solution, and the cell suspension was seeded onto a 96-well plate (Nunclon) at a concentration of 9k cells/well. Toxicity of 3AC and 3FF was tested as follows: 72 h after seeding, culture medium was discarded and replaced by compound solution in PBS that was diluted with cell culture medium to the final concentration: [3××] = 10 to 100 μM. Resazurin (0.1 mg/mL) was added. After 2 h of incubation, fluorescence was measured (λex = 560 nm // λem = 590 nm) using a spectrophotometric BioTek Synergy 2 Microplate Reader (Agilent). Cell viability is expressed as an emission percent ratio of cells treated with the compound to untreated cells, which were used as a control. The results are the average from three independent experiments. In experiments with fondaparinux, the cells were incubated for 2 h with [fondaparinux] = 100 μM and [3××] = 50/100/200 μM following the same procedure for the rest of the protocol.

[3] = system: HMEC-1 cells; assay: Resazurin cell viability assay; format: cell-based; details: for Cell viability (toxicity): HMEC-1, concentrations <100 μM, resazurin
Description: as §1, §2

[4] = system: freshly extracted mouse blood; assay: Naked-eye ex vivo blood coagulation assay; format: cell-based; details: 100 μM fond + 200 μM antidote, 5 min
Description: Considering the results obtained in the in vitro assays, we aimed to test our molecules in a more relevant and challenging environment. To this aim, we performed naked-eye ex vivo coagulation assays (Figure ). Freshly extracted mouse blood samples were treated with fond (100 μM final concentration) in the absence and in the presence of different antidotes (two molar equivalents). Blood coagulation was visually inspected by the simple inversion of the vials. For a fair comparison between different series, all of the experiments were done in parallel with the corresponding control samples of untreated mouse blood (labeled “0” in Figure ). […] The effect of antidotes alone on blood coagulation was also tested (Figure B), showing that neither of the three small molecules appreciably changed the coagulation properties.
This naked-eye coagulation test is an adaptation of the whole blood clotting time assay. , Freshly collected mouse blood was directly used without further treatment. 300 μL aliquots were dispensed in Eppendorf tubes, to which fondaparinux (100 μM), and/or potential antidotes (3AC, 3FF, ciraparantag, or protamine, 200 μM) were added, and a picture was taken after 5 min. Clot formation was verified by inverting the Eppendorf vials.

Row | Structure (SMILES) | Kd ([1]; 1 mM Bis-Tris buffer pH 7.5) [µM] | Stepwise binding constant K (1:1) ([1]; fond/3AC 1:1 complex, 1 mM Bis-Tris buffer pH 7.5) | Stepwise binding constant K (1:2) ([1]; fond/3AC 1:2 complex, 1 mM Bis-Tris buffer pH 7.5) | logβ(3AC-Fond) ([1]; formation constant from model fitting, 1:1 complex) | logβ(3AC2-Fond) ([1]; formation constant from model fitting, 1:2 fond/3AC complex) | Cell toxicity in the presence of fondaparinux ([2]; 100 μM fondaparinux, 50/100/200 μM compound) | Cell viability (toxicity) [2] | Cell toxicity in the presence of fondaparinux ([3]; HMEC-1, 100 μM fondaparinux, 50/100/200 μM compound) | Cell viability (toxicity) [3] | Reversal of fond anticoagulant effect (clot formation by vial inversion) [4]
1 | Oc1ccccc1CNCCCNCCCCNCCCNCc1ccc2c(c1)Cc1ccccc1-2 [Compound 3AC] | 4.5 ± 0.09 | 2.05 ± 0.05 × 10^5 M^–1 | 1.95 ± 0.19 × 10^4 M^–1 | 5.31(1) | 9.60(3) | reduced | low to acceptable cell toxicity | reduced | low to acceptable cell toxicity | efficiently revert the drug effect
2 | Oc1ccc2ccccc2c1CNCCCNCCCCNCCCNCc1c(O)ccc2ccccc12 [Compound 3FF] | 9.8 ± 0.3 | – | – | – | – | – | low to acceptable cell toxicity | – | low to acceptable cell toxicity | efficiently revert the drug effect
